Consider 20 compounds from publication PMC6271771, “4-Amino-substituted Benzenesulfonamides as Inhibitors of Human Carbonic Anhydrases” (Molecules, 2014).

As usually defined, the Kd is the concentration at which binding is half-saturated.

Values joined by “and” are separate entries in the source; they are usually repeats but may differ in a detail not shown here. Equal values may be shown once. Read-outs that look alike come from different tables or passages of the source.

What all share (assay type): binding
Test [1] addresses T1, CA I (Homo sapiens, UniProt P00915).
T1 construct: made in house
The test is described as follows: Fluorescent thermal shift assay (FTSA), CA I.

Test [2] concerns the target T2, CA II (Homo sapiens, UniProt P00918).
T2 construct: made in house
The test is described as follows: Fluorescent thermal shift assay (FTSA), CA II. The following applies: pH 7.0, 37 °C, read-out: Compound Dissociation Constants Kd for CA II.

For test [3], the target named is T3, CA VI (Homo sapiens, UniProt P23280).
T3 construct: made in house
T3 sequence (P23280 18-308): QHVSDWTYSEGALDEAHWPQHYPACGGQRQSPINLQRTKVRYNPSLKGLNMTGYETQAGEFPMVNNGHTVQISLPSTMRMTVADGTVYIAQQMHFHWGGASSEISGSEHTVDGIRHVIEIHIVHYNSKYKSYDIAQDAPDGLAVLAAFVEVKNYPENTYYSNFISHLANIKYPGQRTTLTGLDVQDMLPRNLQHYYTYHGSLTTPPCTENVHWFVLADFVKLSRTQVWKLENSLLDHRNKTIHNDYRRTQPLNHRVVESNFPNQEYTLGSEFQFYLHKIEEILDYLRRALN
The test is described as follows: Fluorescent thermal shift assay (FTSA), CA VI. The settings on record: FTSA, pH 7.0, 37 °C; read-out: Compound Dissociation Constants Kd for CA VI.

For test [4], the target named is T4, CA VII (Homo sapiens, UniProt P43166).
T4 construct: made in house
T4 sequence (P43166 whole entry): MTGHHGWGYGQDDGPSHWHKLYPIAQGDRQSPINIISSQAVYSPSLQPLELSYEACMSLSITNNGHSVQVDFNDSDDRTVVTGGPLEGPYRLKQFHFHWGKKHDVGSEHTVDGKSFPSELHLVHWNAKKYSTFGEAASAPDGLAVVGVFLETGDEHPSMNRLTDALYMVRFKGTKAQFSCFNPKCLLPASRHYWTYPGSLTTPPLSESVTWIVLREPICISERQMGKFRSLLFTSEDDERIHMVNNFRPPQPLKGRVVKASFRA
The test is described as follows: Fluorescent thermal shift assay (FTSA), CA VII.

For test [5], the target named is T5, CA XII (Homo sapiens, UniProt O43570).
T5 construct: made in house
T5 sequence (O43570 30-289 limits assumed): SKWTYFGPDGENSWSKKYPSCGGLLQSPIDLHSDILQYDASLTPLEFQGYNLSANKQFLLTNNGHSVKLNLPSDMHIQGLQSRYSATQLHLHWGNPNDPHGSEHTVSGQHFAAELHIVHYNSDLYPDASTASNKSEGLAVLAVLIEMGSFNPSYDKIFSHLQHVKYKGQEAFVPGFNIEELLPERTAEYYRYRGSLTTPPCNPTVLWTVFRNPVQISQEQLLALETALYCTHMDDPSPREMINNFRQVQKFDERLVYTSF
The test is described as follows: Fluorescent thermal shift assay (FTSA), CA XII. The following applies: FTSA, pH 7.0, 37 °C; read-out: Compound Dissociation Constants Kd for CA XII.

Test [6] addresses T6, CA XIII (Homo sapiens, UniProt Q8N1Q1).
T6 construct: made in house
The test is described as follows: Fluorescent thermal shift assay (FTSA), CA XIII. The settings on record: FTSA, pH 7.0, 37 °C; read-out: Compound Dissociation Constants Kd for CA XIII.

The mark [7] stands for this setting: FTSA, pH 7.0, 37 °C, read-out: Compound Dissociation Constants Kd for CA I.
The mark [8] stands for this setting: FTSA, pH 7.0, 37 °C, read-out: Compound Dissociation Constants Kd for CA VII.

T1 sequence (P00915 whole entry): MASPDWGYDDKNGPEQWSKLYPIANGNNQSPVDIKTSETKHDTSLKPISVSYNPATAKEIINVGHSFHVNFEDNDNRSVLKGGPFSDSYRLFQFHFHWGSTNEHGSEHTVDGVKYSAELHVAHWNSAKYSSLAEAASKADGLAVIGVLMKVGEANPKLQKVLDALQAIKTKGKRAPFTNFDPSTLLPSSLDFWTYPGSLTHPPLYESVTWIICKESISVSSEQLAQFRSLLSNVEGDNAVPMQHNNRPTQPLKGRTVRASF
T6 sequence (Q8N1Q1 whole entry): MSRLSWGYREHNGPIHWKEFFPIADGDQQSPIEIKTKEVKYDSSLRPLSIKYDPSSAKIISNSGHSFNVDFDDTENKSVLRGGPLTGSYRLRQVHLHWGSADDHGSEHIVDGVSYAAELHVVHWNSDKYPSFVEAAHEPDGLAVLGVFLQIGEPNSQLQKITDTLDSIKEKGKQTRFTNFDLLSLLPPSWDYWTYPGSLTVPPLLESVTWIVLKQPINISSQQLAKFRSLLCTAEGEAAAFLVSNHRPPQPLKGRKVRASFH

On to `NS(=O)(=O)c1ccc(N2CCC(=O)NC2=S)cc1` [Compound 6, 4-(4-Oxo-2-sulfanylidene-1,3-diazinan-1-yl)benzene-1-sulfonamide], for which the Kd was 1.11 µM in test [1] (setting [7]); 0.67 µM and 0.667 µM in test [2]; 8.3 µM in test [3]; 1.61 µM in test [4] (setting [8]); 5.56 µM in test [5]; 2.86 µM in test [6].

Regarding `CCSc1nnc(CCNc2ccc(S(N)(=O)=O)cc2)o1` [Compound 25, 4-({2-[5-(Ethylsulfanyl)-1,3,4-oxadiazol-2-yl]ethyl}amino)benzene-1-sulfonamide], the Kd in test [1] (setting [7]) is 5.88 µM; in test [2], 1.18 µM; in test [3] it was 28.6 µM; in test [4] (setting [8]), 5.6 µM; in test [5], 10.5 µM; in test [6], 3.33 µM.

Take `CCSC(=NS(=O)(=O)c1ccc(NCCC(=O)O)cc1)SCC` [Compound 4, 3-[(4-{[Bis(ethylthio)methylene]sulfamoyl}phenyl)amino]propanoic Acid]: the Kd in test [1] (setting [7]) was above 200 µM; in test [2], 40 µM; in test [3], above 200 µM; in test [4] (setting [8]), above 200 µM; in test [5], above 200 µM; in test [6], above 200 µM.

As to `COC(=O)CCNc1ccc(S(N)(=O)=O)cc1` [Compound 7, Methyl-3-[(4-sulfamoylphenyl)amino]propanoate], the Kd stood at 35.7 µM in test [1]; 9.1 µM in test [2]; 71.4 µM in test [3]; 35.7 µM in test [4]; 33.3 µM in test [5]; 58.8 µM in test [6].

Regarding `NS(=O)(=O)c1ccc(NCCC(=O)NNC(=O)Nc2ccccc2)cc1` [Compound 20, N-[(Phenylcarbamoyl)amino]-3-[(4-sulfamoylphenyl)amino]propanamide], the Kd in test [1] (setting [7]) was 28.6 µM; in test [2] it was 4 µM; in test [3], 7.1 µM; in test [4] (setting [8]), 12.5 µM; in test [5], 1.85 µM; in test [6], 18.5 µM.

For `NS(=O)(=O)c1ccc(NCCC(=O)O)cc1` [Compound 3, 3-[(4-Sulfamoylphenyl)amino]propanoic Acid], the Kd in test [1] (setting [7]) was 40 µM; in test [2], 12.5 µM; in test [3] it was 62.5 µM; in test [4] (setting [8]), 22.2 µM; in test [5], 9.5 µM; in test [6], 33.3 µM.

As for `NS(=O)(=O)c1ccc(/N=N/N2CCOCC2)cc1` [Compound 29], the Kd in test [1] (setting [7]) worked out at 0.029 µM; in test [2], 0.1 µM; in test [3], 11.8 µM; in test [4] (setting [8]) it was 0.4 µM; in test [5], 3.3 µM; in test [6], 0.222 µM.

For `NS(=O)(=O)c1ccc(/N=N/N2CCCC2)cc1` [Compound 28], the Kd in test [1] (setting [7]) was 0.0333 µM; in test [2] it was 0.133 µM; in test [3], 13.3 µM; in test [4] (setting [8]), 0.454 µM; in test [5], 1.81 µM; in test [6], 0.167 µM.

As to `NS(=O)(=O)c1ccc(N2CCC(=O)NC2=O)cc1` [Compound 5, 4-(2,4-Dioxo-1,3-diazinan-1-yl)benzene-1-sulfonamide], the Kd is 3.85 µM in test [1] (setting [7]); 0.83 µM and 0.833 µM in test [2]; 12.5 µM in test [3]; 1.54 µM in test [4] (setting [8]); 5.56 µM in test [5]; 8.33 µM in test [6].

Take `Nc1nnc(CCNc2ccc(S(N)(=O)=O)cc2)s1` [Compound 10, 4-{[2-(5-Amino-1,3,4-thiadiazol-2-yl)ethyl]amino}benzene-1-sulfonamide]: the Kd in test [1] (setting [7]) was determined as 170 µM; in test [2], 20 µM; in test [3] it was 140 µM; in test [4] (setting [8]) it was 100 µM; in test [5], 130 µM; in test [6], 83 µM. Also, the “times more weakly bound to CA I than SA” value in test [1] (ratio of Kd, FTSA) came to 1.7 times.

Take `NCCS/N=N/c1ccc(S(N)(=O)=O)cc1` [Compound 33]: the Kd in test [1] (setting [7]) amounted to 0.5 µM; in test [2] it was 0.278 µM; in test [3], 8.3 µM; in test [4] (setting [8]), 1 µM; in test [5], 6.25 µM; in test [6] it was 2.86 µM.

`NNC(=O)CCNc1ccc(S(N)(=O)=O)cc1` [Compound 8, 4-{[(2-Hydrazinecarbonyl)ethyl]amino}benzene-1-sulfonamide]: the Kd was found to be 55.6 µM in test [1] (setting [7]); 10.5 µM in test [2]; 62.5 µM in test [3]; 28.6 µM in test [4] (setting [8]); 33.3 µM in test [5]; 76.9 µM in test [6].

Consider `NS(=O)(=O)c1ccc(NCCC(=O)NNC(=S)Nc2ccccc2)cc1` [Compound 21, N-[(Phenylcarbamothioyl)amino]-3-[(4-sulfamoylphenil)amino]propanamide], for which the Kd in test [1] (setting [7]) stood at 9.09 µM; in test [2] it was 4 µM; in test [3], 8.3 µM; in test [4] (setting [8]), 5.56 µM; in test [5], 5.56 µM; in test [6] it was 9.09 µM.

In the case of `NC(=S)NNC(=O)CCNc1ccc(S(N)(=O)=O)cc1` [Compound 9, N-(Carbamothioylamino)-3-[(4-sulfamoylphenyl)amino]propanamide], the Kd in test [1] (setting [7]) was found to be 58.8 µM; in test [2] it was 10 µM; in test [3], 50 µM; in test [4] (setting [8]), 28.6 µM; in test [5], 33.3 µM; in test [6] it was 76.9 µM.

For the compound `NS(=O)(=O)c1ccccc1` [BSA, benzenesulfonamide], in test [3], the Kd is 14 µM.

With `NS(=O)(=O)c1ccc(NCCc2n[nH]c(=S)o2)cc1` [Compound 24, 4-{[2-(5-Sulfanylidene-4,5-dihydro-1,3,4-oxadiazol-2-yl)ethyl]amino}benzene-1-sulfonamide], the Kd in test [1] (setting [7]) came to 12.5 µM; in test [2] it was 4.55 µM; in test [3] it was 33.3 µM; in test [4] (setting [8]) it was 4.55 µM; in test [5], 5.88 µM; in test [6], 26.3 µM.

As to `CCN(CC)/N=N/c1ccc(S(N)(=O)=O)cc1` [Compound 27], the Kd was found to be 0.0133 µM in test [1] (setting [7]); 0.0714 µM in test [2]; 13.3 µM in test [3]; 0.2 µM in test [4] (setting [8]); 0.588 µM in test [5]; 0.1 µM in test [6].

With `NS(=O)(=O)c1ccc(/N=N/N2CCCCC2)cc1` [Compound 30], the Kd in test [1] (setting [7]) came out at 0.00667 µM; in test [2], 0.0625 µM; in test [3], 10 µM; in test [4] (setting [8]) it was 0.12 µM; in test [5] it was 0.77 µM; in test [6] it was 0.0667 µM. In addition, the “selectivity: bound to CA I times stronger than to CA II” value in test [1] (ratio of FTSA Kd) is recorded as 9.4 times. In addition, the “selectivity: bound to CA I times stronger than to CA VI” value in test [1] (ratio of FTSA Kd) is on record as 1500 times. Moreover, the “selectivity: bound to CA I times stronger than to CA VII” value in test [1] (ratio of FTSA Kd) worked out at 18 times. For the same compound, in test [1] (ratio of FTSA Kd), the “selectivity: bound to CA I times stronger than to CA XII” value came out at 115 times. Also, the “selectivity: bound to CA I times stronger than to CA XIII” value in test [1] (ratio of FTSA Kd) amounted to 10 times.

On to `NS(=O)(=O)c1ccc(/N=N/SCCO)cc1` [Compound 32], for which the Kd in test [1] (setting [7]) worked out at 0.0333 µM; in test [2], 0.0667 µM; in test [3], 3.2 µM; in test [4] (setting [8]), 0.286 µM; in test [5], 2 µM; in test [6], 1.4 µM. In addition, the “CA I binding in the presence (32) versus absence (34) of the diazo group” value in test [1] (comparison of Kd of 32 and 34) is “about six-fold stronger”.

For the compound `CN(C)/N=N/c1ccc(S(N)(=O)=O)cc1` [Compound 26], the Kd came out at 0.1 µM in test [1] (setting [7]); 0.181 µM in test [2]; 13.3 µM in test [3]; 0.769 µM in test [4] (setting [8]); 2.7 µM in test [5]; 0.4 µM in test [6].
